ChEMBL document CHEMBL5230145, “Bifunctional μ opioid and σ1 receptor ligands as novel analgesics with reduced side effects” (Eur J Med Chem, 2021)

Key:
[1] = Therapeutic index, ratio of LD50 for toxicity in ip dosed rodent to ED50 for analgesic activity in ip dosed rodent; format: organism-based; details: rodentia, in vivo, read-out: Ratio LD50/ED50
[2] = Toxicity in ip dosed rodent; format: organism-based; details: rodentia, in vivo
Rodentia sp. = experiment: Analgesic activity in ip dosed formalin-induced pain rodent model; format: functional
Mu-type opioid receptor [3] = biological target: T1, Mu-type opioid receptor (Homo sapiens, UniProt P35372); experiment: Binding affinity to mu opioid receptor (unknown origin) assessed as inhibition constant in presence of Levorphanol
Mus musculus = experiment: Antiallodynic activity in ip dosed MIA induced mechanical allodynia mouse model; format: functional
Mu-type opioid receptor [4] = biological target: T1, Mu-type opioid receptor; experiment: Displacement of [3H]-DAMGO from human mu opioid receptor expressed in CHO-K1 cells membrane incubated for 60 mins by MicroBeta scintillation counter assay; format: cell membranes
[5] = biological target: Sigma non-opioid intracellular receptor 1 (Homo sapiens, UniProt Q99720); experiment: Displacement of [3H](+)-pentazocine from human sigma 1 receptor expressed in HEK293 cells membrane incubated for 120 mins by MicroBeta scintillation counter assay; format: cell membranes
[6] = Metabolic stability in mini-pig liver microsomes assessed as compound remaining after 1 hr; format: ADME, Sus scrofa domesticus, Microsome; details: read-out: Stability
[7] = Toxicity in ig dosed Sprague-Dawley rat; format: organism-based; details: in vivo, po
[8] = Therapeutic index, ratio of LD50 for toxicity in ig dosed Sprague-Dawley rat to ED50 for analgesic activity in ig dosed Sprague-Dawley rat; format: organism-based; details: in vivo, po, read-out: Ratio LD50/ED50
Rattus norvegicus = experiment: Analgesic activity in ig dosed formalin-induced pain Sprague-Dawley rat model; format: functional; details: po

T1 sequence (P35372 whole entry): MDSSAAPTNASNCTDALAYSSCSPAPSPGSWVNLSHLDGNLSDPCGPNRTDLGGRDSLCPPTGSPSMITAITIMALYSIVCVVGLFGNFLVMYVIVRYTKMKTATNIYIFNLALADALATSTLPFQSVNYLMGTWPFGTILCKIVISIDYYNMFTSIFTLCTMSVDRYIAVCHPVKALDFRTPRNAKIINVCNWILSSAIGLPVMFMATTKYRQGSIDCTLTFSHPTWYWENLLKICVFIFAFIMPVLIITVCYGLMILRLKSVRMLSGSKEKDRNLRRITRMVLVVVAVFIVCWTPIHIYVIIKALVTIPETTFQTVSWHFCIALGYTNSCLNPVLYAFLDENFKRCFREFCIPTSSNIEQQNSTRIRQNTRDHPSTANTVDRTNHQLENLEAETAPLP
Sequence of Sigma non-opioid intracellular receptor 1 (Q99720 whole entry): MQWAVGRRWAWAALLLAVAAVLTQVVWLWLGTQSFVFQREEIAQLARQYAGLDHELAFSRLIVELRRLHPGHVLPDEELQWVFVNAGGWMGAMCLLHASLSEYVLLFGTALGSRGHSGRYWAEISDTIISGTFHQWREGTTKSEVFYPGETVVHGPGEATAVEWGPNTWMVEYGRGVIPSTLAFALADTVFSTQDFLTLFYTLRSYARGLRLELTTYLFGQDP

Row | Compound | Ki (Mu-type opioid receptor [4]) | Ki [5] | further results
1 | Cc1cc(OCCN2CCOCC2)nn1-c1ccc2ccccc2c1 | – | – | selectivity ratio [1]: 12; LD50 [2]: 397 mg/kg; ED50 (Rodentia sp.): 33.2 mg/kg
2 | C[C@@H]1[C@@H]2Cc3ccc(O)cc3[C@]1(C)CCN2CCc1ccccc1 | – | – | Ki (Mu-type opioid receptor [3]): 55 nM
3 | C[C@H]1[C@H]2Cc3ccc(O)cc3[C@@]1(C)CCN2CCc1ccccc1 | – | – | Ki (Mu-type opioid receptor [3]): 0.2 nM
4 | CCC(=O)N(CC1(N2CCN(CC(C)C)CC2)CCOCC1)c1cccc(C(F)(F)F)n1 | – | – | ED50 (Mus musculus): 31.9 mg/kg
5 | CC(=O)Oc1cccc(C2CCN(Cc3cn(-c4ccccc4)nn3)CC2)c1 | < 100 nM | < 100 nM | –
6 | [2H]C([2H])([2H])C([2H])([2H])N1CC2(CCN(C([2H])([2H])C([2H])([2H])c3cc(F)ccc3F)CC2)O[C@H](C)C1=O | – | – | remaining at 1 h [6]: 64%
7 | CC(C)S(=O)(=O)Nc1cccc(C2CCN(Cc3cn(-c4ccccc4)nn3)CC2)c1 | < 100 nM | < 100 nM | –
8 | CN1CCc2ccccc2C12CCN(CCc1ccccc1)CC2 | < 100 nM | < 100 nM | –
9 | CC(C)S(=O)(=O)Nc1cccc(N2CCN(Cc3cn(-c4ccccc4F)nn3)CC2)c1 | < 100 nM | < 100 nM | –
10 | CC(C)S(=O)(=O)Nc1cccc(N2CCN(Cc3cn(-c4ccccc4)nn3)CC2)c1 | < 100 nM | < 100 nM | –
11 | COc1ccc2c(c1)CCN(C)C21CCN(CCc2ccccc2)CC1 | < 100 nM | < 100 nM | –
12 | CCOCCN1CCCCC(CC)(c2cccc(O)c2)C1 (stereo unspecified) | < 100 nM | < 100 nM | –
13 | CCC(=O)N(CCN1CCC(N(C)Cc2ccccc2)C1)c1ccccc1 (stereo unspecified) | – | 100 nM | –
14 | O=C(c1ccccn1)C1(N2CCN(Cc3ccccc3)CC2)CCOC2(CCCC2)C1 (stereo unspecified) | < 100 nM | < 100 nM | –
15 | CCN1CC2(CCN(CCc3ccccc3)CC2)c2ccccc2C1=O | 100 nM | 100 nM | –
16 | CN(CCOC(c1cccs1)c1ccnn1C)Cc1ccccc1 (stereo unspecified) | < 100 nM | < 100 nM | –
17 | Clc1ccc(-c2noc(CCCCN3CCCCC3)n2)c(Cl)c1 | – | – | LD50 [7]: 957 mg/kg; selectivity ratio [8]: 18.2; ED50 (Rattus norvegicus): 52.5 mg/kg
18 | Oc1cccc(C2CCN(Cc3cn(-c4ccccc4)nn3)CC2)c1 | < 100 nM | < 100 nM | –
19 | CN1CC2(CCN(CCc3ccccc3)CC2)c2ccccc2C1=O | 100 nM | 100 nM | –
20 | CN(CCOC(c1cccs1)c1ccnn1C)CCc1ccccc1 (stereo unspecified) | < 100 nM | < 100 nM | –
21 | O=C(c1ccccc1)C1(N2CCN(Cc3ccccc3)CC2)CCOC2(CCCC2)C1 (stereo unspecified) | < 100 nM | < 100 nM | –
22 | O=C(c1cccc(C(F)(F)F)n1)C1(N2CCN(Cc3ccccc3)CC2)CCOC2(CCCC2)C1 (stereo unspecified) | < 100 nM | < 100 nM | –
